{"source": "patent US20040110821A1", "about": "“GAL3 receptor antagonists for the treatment of affective disorders” (priority 2002, published 2004)", "test_system": "Male albino Sprague-Dawley rats", "assay": "Rat Social Interaction Test (SIT)", "format": "in vivo", "description": "Rats were allowed to acclimate to the animal care facility for 5 days and were housed singly for 5 days prior to testing. Animals were handled for 5 minutes per day. The design and procedure for the Social Interaction Test was carried out as previously described by Kennett, et al. (1997). On the test day, weight matched pairs of rats (±5%), unfamiliar to each other, were given identical treatments and returned to their home cages. Animals were randomly divided into 5 treatment groups, with 5 pairs per group, and were given one of the following i.p. treatments: Example 92 (10, 30 or 100 mg/kg), vehicle (1 ml/kg) or chlordiazepoxide (5 mg/kg). Dosing was 1 hour prior to testing. Rats were subsequently placed in a white perspex test box or arena (54×37×26 cm), whose floor was divided up into 24 equal squares, for 15 minutes. An air conditioner was used to generate background noise and to keep the room at approximately 74° F. All sessions were videotaped using a JVC camcorder (model GR-SZ1, Elmwood Park, N.J.) with either TDK (HG ultimate brand) or Sony 30 minute videocassettes. All sessions were conducted between 1:00-4:30 P.M. Active social interaction, defined as grooming, sniffing, biting, boxing, wrestling, following and crawling over or under, was scored using a stopwatch (Sportsline model no. 226, 1/100 sec. discriminability). The number of episodes of rearing (animal completely raises up its body on its hind limbs), grooming (licking, biting, scratching of body), and face washing (i.e. hands are moved repeatedly over face), and number of squares crossed were scored. Passive social interaction (animals are lying beside or on top of each other) was not scored. All behaviors were assessed later by an observer who was blind as to the treatment of each pair. At the end.of each test, the box was thoroughly wiped with moistened paper towels.\nMale albino Sprague-Dawley rats (Taconic Farms, N.Y.) were housed in pairs under a 12 hr light dark cycle (lights on at 0700 hrs.) with free access to food and water.\nExample 92 was dissolved in 100% DMSO (Sigma Chemical Co., St. Louis, Mo.). Chlordiazepoxide (purchased from Sigma Chemical Co., St. Louis, Mo.) was dissolved in double distilled water. The vehicle consisted of 50% DMSO (v/v). All drug solutions were made up 10 minutes prior to injection and the solutions were discarded.\nExample 34 was dissolved in 5% lactic acid, v/v. The vehicle consisted of 100% dimethylacetamide (DMA) and this was used to make up all drug solutions. All drug solutions were made up fresh each day and any unused solutions were discarded at the end of the test day. The volume of drug solution administered was 1 ml/kg.\nThe social interaction data (time interacting, rearing and squares crossed) were subjected to a randomized, one-way ANOVA and post hoc tests conducted using the Student-Newman-Keuls test. The data were subjected to a test of normality (Shapiro-Wilk test). The data were analyzed using the GBSTAT program, version 6.5 (Dynamics Microsystems, Inc., Silver Spring, Md., 1997). All data are presented as means ±S.E.M.", "note": "Marks after values point to notes of the source that are not given here."}
{"smiles": "CNC1=Nc2ccc(Cl)cc2C(c2ccccc2)=[N+]([O-])C1", "note": "[Chlordiazepoxide, chlordiazepoxide, reference compound]", "values": [{"measurement": "Social Interaction (sec)", "setting": "5 mg/kg i.p., 1 hour before 15 min test, unfamiliar rats", "value": "188 ± 15^b sec"}, {"measurement": "Social Interaction (sec)", "setting": "5 mg/kg p.o., one hour before test, unfamiliar cage mates in a familiar arena", "value": "122 ± 18^$ sec"}]}
